Laboratory results as given in patent publication US4933347A, “Diamidines and bis(imidazolines) for the treatment of and prophylaxis against pneumocystis carinii pneumonia” (University of North Carolina at Chapel Hill, priority 1988, dated 1990).

Test system: Pneumocystis carinii
Experiment: Treatment of Pneumocystis carinii pneumonia in Sprague-Dawley rats (extent of disease by histologic score)
Assay type: in vivo, male Sprague-Dawley rats
Settings: for Extent of Disease by Histologic Score: number of animals with score 0.5 / Extent of disease by histologic score (combined): number of animals in scoring group 0.5: 0.5 = <10 cysts found per 2 sections; for Extent of disease by histologic score (combined): number of animals in scoring group 0.5 / Extent of disease by histologic score (combined): number of animals in scoring group 1 / Extent of disease by histologic score (combined): number of animals in scoring group 2 / Extent of disease by histologic score (combined): number of animals in scoring group 3 / Extent of disease by histologic score (combined): number of animals in scoring group 4: Table XII composite; for Extent of disease by histologic score (combined): number of animals in scoring group 2: 5-10% of lung involved; for Extent of disease by histologic score (combined): number of animals in scoring group 3: 10-50% of lung involved
Procedure: Induction and Treatment Of Pneumocystis Carinii in Sprague-Dawley Rats
Male Sprague-Dawley rats, barrier raised, non-certified virus free, weighing 150-200g were obtained from Hilltop Laboratories and housed individually. Animals were begun on a low (8%) protein diet (ICN Biomedicals, Cincinnati, OH) and drinking water containing tetracycline (0.5 mg/ml) and dexamethasone (1.0 μg/ml) immediately upon arrival. This treatment was given for the next 8 weeks, monitoring fluid intake daily and weighing animals weekly. Dilutions of the drinking solution were made when animals consumed too much fluid so as to prevent cortisone poisoning. At the beginning of the sixth week, animals were divided into groups of 8 animals each and the test compounds were administered daily by i.v. injection at a dose of 10 mg/kg, unless otherwise noted, for the next 14 days.
Animals were sacrificed at the end of the eighth week by chloroform inhalation and the left lung was removed aseptically and placed in sterile Hank's balanced salts solution without calcium or magnesium (HBSS-) for the ground tissue procedure. The right lung was inflated in situ with 10% […] and removed for histologic examination GMS staining. […]

[1] = 10 mg/kg i.v. daily, 14 days, 1 = scattered cysts, <5% of lung involved
[2] = 10 mg/kg i.v. daily, 14 days, 2 = scattered cysts, 5-10% lung involved or small foci of infection
[3] = 10 mg/kg i.v. daily, 14 days, 3 = scattered cysts, 10-50% of lung involved with some intense areas of infection
[4] = 10 mg/kg i.v. daily, 14 days, 4 = >50% of lung involved with many intense areas of focal infection
[5] = 10 mg/kg unless otherwise noted
[6] = 10 mg/kg, 1 = scattered cysts, <5% of lung involved
[7] = 10 mg/kg, 4 = >50% of lung involved

Row | SMILES | Extent of Disease by Histologic Score: number of animals with score 0.5 (10 mg/kg i.v. daily, 14 days) [animals] | Extent of Disease by Histologic Score: number of animals with score 1 [1] [animals] | Extent of Disease by Histologic Score: number of animals with score 2 [2] [animals] | Extent of Disease by Histologic Score: number of animals with score 3 [3] [animals] | Extent of Disease by Histologic Score: number of animals with score 4 [4] [animals] | Efficacy in treating PCP compared with pentamidine [5] | Extent of disease by histologic score (combined): number of animals in scoring group 0.5 (10 mg/kg) [animals] | Extent of disease by histologic score (combined): number of animals in scoring group 1 [6] [animals] | Extent of disease by histologic score (combined): number of animals in scoring group 2 (10 mg/kg, 2 = scattered cysts) [animals] | Extent of disease by histologic score (combined): number of animals in scoring group 3 (10 mg/kg, 3 = scattered cysts) [animals] | Extent of disease by histologic score (combined): number of animals in scoring group 4 [7] [animals] | also measured
1 | N=C(N)c1ccc(OCCCCCCOc2ccc(C(=N)N)cc2)cc1 [Example 20, hexamidine, reference compound] | 3 | 3 | 1 | 0 | 0 | improved performance in treating pcp | 3 | 3 | 1 | 0 | 0 | 
2 | c1cc(C2=NCCN2)ccc1OCCCCCOc1ccc(C2=NCCN2)cc1 [Example 30] | 5 | 3 | 0 | 0 | 0 | comparable to or perhaps slightly better than pentamidine | 5 | 3 | 0 | 0 | 0 | 
3 | N=C(N)c1cccc(OCCCOc2cccc(C(=N)N)c2)c1 [Example 26] | 2 | 1 | 4 | 1 | 0 |  | 2 | 1 | 4 | 1 | 0 | 
4 | N=C(N)c1ccc(OCCCCOc2ccc(C(=N)N)cc2N)c(N)c1 [Example 10] | 2 | 5 | 1 | 0 | 0 | approximately comparable to pentamidine in efficacy | 2 | 5 | 1 | 0 | 0 | Efficacy in treating PCP compared with control [5]: significantly better than the control
5 | N=C(N)c1ccc(OCCCOc2ccc(C(=N)N)cc2)cc1 [Example 4] | 3 | 4 | 1 | 0 | 0 | better at controlling the extent of the pcp infection than either para- or meta- pentamidine | 3 | 4 | 1 | 0 | 0 | 
6 | c1cc(C2=NCCN2)ccc1OCCCCOc1ccc(C2=NCCN2)cc1 [Example 40] | 1 | 2 | 3 | 1 | 0 |  | 1 | 2 | 3 | 1 | 0 | Efficacy in treating PCP compared with control [5]: significantly better than the control
7 | COc1cc(C(=N)N)ccc1OCCCCCOc1ccc(C(=N)N)cc1OC [Example 15] |  |  |  |  |  | improved performance in treating pcp |  |  |  |  |  | Extent of Disease by Histologic Score: number of animals with score 0.5 (5 mg/kg i.v. daily, 14 days): 0 animals; Extent of Disease by Histologic Score: number of animals with score 1 (5 mg/kg i.v. daily, 14 days, 1 = scattered cysts, <5% of lung involved): 3 animals; Extent of Disease by Histologic Score: number of animals with score 2 (5 mg/kg i.v. daily, 14 days, 2 = scattered cysts, 5-10% lung involved or small foci of infection): 4 animals; Extent of Disease by Histologic Score: number of animals with score 3 (5 mg/kg i.v. daily, 14 days, 3 = scattered cysts, 10-50% of lung involved with some intense areas of infection): 1 animals; Extent of Disease by Histologic Score: number of animals with score 4 (5 mg/kg i.v. daily, 14 days, 4 = >50% of lung involved with many intense areas of focal infection): 0 animals; Extent of Disease by Histologic Score: number of animals with score 0.5 (Table III, Example 15 (Table XII footnote d: 2.5 mg/kg)): 2 animals; Extent of Disease by Histologic Score: number of animals with score 1 (Table III, Example 15 (Table XII footnote d: 2.5 mg/kg), 1 = <5% of lung involved): 1 animals; Extent of Disease by Histologic Score: number of animals with score 2 (Table III, Example 15 (Table XII footnote d: 2.5 mg/kg), 2 = 5-10% lung involved): 3 animals; Extent of Disease by Histologic Score: number of animals with score 3 (Table III, Example 15 (Table XII footnote d: 2.5 mg/kg), 3 = 10-50% of lung involved): 0 animals; Extent of Disease by Histologic Score: number of animals with score 4 (Table III, Example 15 (Table XII footnote d: 2.5 mg/kg), 4 = >50% of lung involved): 0 animals; Extent of disease by histologic score (combined): number of animals in scoring group 0.5 (tested at 2.5 mg/kg): 2 animals; Extent of disease by histologic score (combined): number of animals in scoring group 1 (tested at 2.5 mg/kg, 1 = scattered cysts, <5% of lung involved): 4 animals; Extent of disease by histologic score (combined): number of animals in scoring group 2 (tested at 2.5 mg/kg, 2 = scattered cysts): 7 animals; Extent of disease by histologic score (combined): number of animals in scoring group 3 (tested at 2.5 mg/kg, 3 = scattered cysts): 1 animals; Extent of disease by histologic score (combined): number of animals in scoring group 4 (tested at 2.5 mg/kg, 4 = >50% of lung involved): 0 animals; Efficacy in treating PCP compared with control (compound at 5 mg/kg): significantly better, at one half the dose, than the control
8 | N=C(N)c1ccc(NCCCNc2ccc(C(=N)N)cc2)cc1 [Example 7] | 5 | 1 | 2 | 0 | 0 | better than or equal to pentamidine | 5 | 1 | 2 | 0 | 0 | Efficacy in treating PCP compared with related compounds of the series (effect of chain length or substituent): most effective
9 | N=C(N)c1cccc(OCCCCCOc2cccc(C(=N)N)c2)c1 [Example 28] |  |  |  |  |  |  | 4 | 3 | 6 | 2 | 1 | 
